Usually EC50 stands for the concentration that produces a half-maximal response. High values mean weaker potency, low ones greater potency.

Structures can show the parent of a compound that is named as a salt.

One series addresses T1, human β3 (Homo sapiens, UniProt P13945).
T1 construct: used as a probe to obtain the full length human β3 gene from a human genomic library; expressed in transfected cells; host or cells: CHO (Chinese hamster ovary) cells, pcDNA3 vector
Nature of the series: Human β3-agonist activities (cAMP in transfected CHO cells). Format: cell-based. As to conditions: for EC50: CHO cells expressing human β3, cAMP, 30 minutes; for Emax: CHO, read-out: Intrinsic activity*. The procedure:
Human β3-Agonist Activities
Human β3-agonist activities were determined using CHO (Chinese hamster ovary) cells transfected with pcDNA3 (mfd. by Invitrogen) to which human β3 gene had been inserted. Human β3 fragment was first obtained from human adipose tissue cDNA (mfd. by Clonetech) by PCR using the primer of β3 (Krief, et al., J. Clin. Invest., vol. 91, pp. 344-349 (1993)). The human β3 fragment thus obtained was used as a probe to obtain the full length human β3 gene from a human genomic library (mfd. by Clonetech). The above cells were cultured in a Ham F-12 medium supplemented with 10% fetal bovine serum, 400 μg/mL geneticin (Gibco BRL), 100 U/mL penicillin and […] streptomycin. After placing these cells (5×10^5) into a 6-well plate and culturing them for 24 hours, they were allowed to stand on a serum-free Ham F-12 medium for 2 hours. The compound was first dissolved in DMSO, repeatedly diluted by ten times with Ham F-12 supplemented with 1 mM isobutylmethyl-xanthine and 1 mM ascorbic acid to a final concentration of from 10^−5 to 10^−12 M, and then added to the cells. After the cells were cultured for 30 minutes, the medium was removed, followed by addition of 0.5 mL of 1 N NaOH. The medium was allowed to stand for 20 minutes and then 0.5 mL of 1 N acetic acid was added to the medium. The medium was stirred and then centrifuged, followed by quantitating cAMP with cAMP EIA kit (mfd. by Cayman). Isoproterenol was purchased from RBI (Research Biochemicals International).

The next series relates to ddy mice. The series is described as follows: Toxicity test, oral, mice. It counts as in vivo. As to conditions: orally, 100 mg/kg, 6-week old male ddy mice, eight animals. The method, then:
Each of the present compounds synthesized in Examples 1 and 2 were orally administered to 6-week old male ddy mice (CHARLES RIVER JAPAN) at 100 mg/kg. […] The other compounds, which achieved the same results, were also shown to have a low toxicity.

Where [1] appears, read: Relative activities (%) as compared with isoproterenol.

T1 sequence (P13945 whole entry): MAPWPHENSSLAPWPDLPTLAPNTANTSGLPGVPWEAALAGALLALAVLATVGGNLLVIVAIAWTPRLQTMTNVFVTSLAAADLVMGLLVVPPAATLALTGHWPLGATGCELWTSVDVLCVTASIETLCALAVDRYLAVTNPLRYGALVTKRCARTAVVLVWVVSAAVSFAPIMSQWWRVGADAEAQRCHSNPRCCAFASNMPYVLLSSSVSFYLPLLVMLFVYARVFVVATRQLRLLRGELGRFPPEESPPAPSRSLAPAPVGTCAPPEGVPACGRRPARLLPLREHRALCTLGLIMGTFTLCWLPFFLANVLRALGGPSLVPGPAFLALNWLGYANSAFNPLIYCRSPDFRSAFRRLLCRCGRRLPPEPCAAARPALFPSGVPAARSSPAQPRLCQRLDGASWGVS

For the compound `Cc1c(CCC(=O)N(C)C)[nH]c2cc(OCCNC[C@H](O)c3cccc(NS(C)(=O)=O)c3)ccc12` [Example 81], the half-maximal effective concentration (EC50) at human β3 came out at 2.8 nM. The Emax on human β3 (setting [1]) was 77%.
For `CCOC(=O)CCc1[nH]c2cc(OCCNC[C@H](O)c3ccc(F)c(NS(C)(=O)=O)c3)ccc2c1C` [Example 80, ethyl (R)-3-[6-[2-[2-(4-fluoro-3-methylsulfonylaminophenyl)-2-hydroxyethylamino]ethoxy]-3-methyl-1H-indol-2-yl]propionate], the EC50 on human β3 is 2.8 nM. Besides, the Emax on human β3 (setting [1]) was found to be 63%.
Consider `CCc1c(-c2cccnc2)[nH]c2cc(OCCNC[C@H](O)c3cccc(NS(C)(=O)=O)c3)ccc12` [Example 73, (R)-N-[3-[2-[2-(3-ethyl-2-pyridin-3-yl-1H-indol-6-yloxy)ethylamino]-1-hydroxyethyl]phenyl]methanesulfonamide], for which the EC50 at human β3 was 3.5 nM. For the same compound, the Emax on human β3 (setting [1]) amounted to 75%.
For the compound `Cc1c(-c2cccnc2)[nH]c2cc(OCCNC[C@H](O)c3ccc(F)c(NS(C)(=O)=O)c3)ccc12` [Example 79, (R)-N-[2-fluoro-5-[1-hydroxy-2-[2-(3-methyl-2-pyridin-3-yl-1H-indol-6-yloxy)ethylamino]ethyl]phenyl]methanesulfonamide], the response at human β3 was half-maximal at 3.4 nM (EC50). For the same compound, the Emax on human β3 (setting [1]) was found to be 65%.
In the case of `CCOC(=O)c1[nH]c2cc(OCCNC[C@H](O)c3cccc(NS(C)(=O)=O)c3)ccc2c1C` [Example 1, ethyl (R)-6-[2-[2-(3-methylsulfonylamino)phenyl-2-hydroxyethylamino]ethoxy]-3-methyl-1H-indole-2-carboxylate hydrochloride], in the series with ddy mice, the animals found dead entry is reported as “none of the eight animals were found to be dead”. In addition, the concentration for a half-maximal effect (EC50) at human β3 was determined as 15 nM. Further, at human β3 (setting [1]), the Emax stood at 97%.
Take `Cc1c(C2CCCN(C(=O)OC(C)(C)C)C2)[nH]c2cc(OCCNC[C@H](O)c3cccc(NS(C)(=O)=O)c3)ccc12` (stereo partly drawn) [Example 75, (R)-N-[3-[2-[2-[2-(N′-t-butyloxycarbonylpiperidin-3-yl)-3-methyl-1H-indol-6-yloxy]ethylamino]-1-hydroxyethyl]phenyl]methanesulfonamide]: a half-maximal response on human β3 (EC50) required 4.4 nM. On human β3 (setting [1]), the Emax stood at 79%.
On human β3, `CCOC(=O)CCc1c(C)[nH]c2cc(OCCNC[C@H](O)c3cccc(NS(C)(=O)=O)c3)ccc12` [Example 13, ethyl (R)-3-[6-[2-[2-(3-methylsulfonylamino)phenyl-2-hydroxyethylamino]ethoxy]-2-methyl-1H-indol-3-yl]propionate] returned an EC50 of 23 nM. Besides, on human β3 (setting [1]), the Emax worked out at 38%.
Compound `Cc1n[nH]c2cc(OCCNC[C@H](O)c3cccc(NS(C)(=O)=O)c3)ccc12` [Example 84, (R)-N-[3-[2-[2-(3-methylindazol-6-yloxy)ethylamino]-1-hydroxyethyl]phenyl]methanesulfonamide hydrochloride] had a concentration for a half-maximal effect (EC50) on human β3 of 12 nM. The Emax at human β3 (setting [1]) came out at 81%.
The compound `Cc1c(-c2cccnc2)[nH]c2cc(OCCNC[C@H](O)c3cccc(NS(C)(=O)=O)c3)ccc12` [Example 72, (R)-N-[3-[1-hydroxy-2-[2-(3-methyl-2-pyridin-3-yl-1H-indol-6-yloxy)ethylamino]ethyl]phenyl]methanesulfonamide] showed an EC50 at human β3 of 2.8 nM. The Emax on human β3 (setting [1]) was 105%.
Turning to `CNS(=O)(=O)c1cc([C@@H](O)CNCCOc2ccc3c(C)n[nH]c3c2)ccc1O` [Example 89, (R)-N-methyl-[5-[2-[2-(3-methylindazol-6-yloxy)ethylamino]-1-hydroxyethyl]-2-hydroxyl]benzenesulfonamide], on human β3, the EC50 amounted to 11 nM. The Emax on human β3 (setting [1]) worked out at 80%.
As to `CCOC(=O)CCc1c(CC)[nH]c2cc(OCCNC[C@H](O)c3cccc(NS(C)(=O)=O)c3)ccc12` [Example 20], on human β3, the EC50 was determined as 32 nM. For the same compound, the Emax on human β3 (setting [1]) was determined as 55%.
At human β3, `Cc1c(-c2ccncc2)[nH]c2cc(OCCNC[C@H](O)c3cccc(NS(C)(=O)=O)c3)ccc12` [Example 74, (R)-N-[3-[1-hydroxy-2-[2-(3-methyl-2-pyridin-4-yl-1H-indol-6-yloxy)ethylamino]ethyl]phenyl]methanesulfonamide] gave an EC50 of 3.9 nM. In addition, the Emax on human β3 (setting [1]) came to 71%.
In turn, `COc1n[nH]c2cc(OCCNC[C@H](O)c3cccc(NS(C)(=O)=O)c3)ccc12` [Example 86, (R)-N-[3-[2-[2-(3-methoxyindazol-6-yloxy)ethylamino]-1-hydroxyethyl]phenyl]methanesulfonamide] displayed an EC50 on human β3 of 26 nM. In addition, the Emax at human β3 (setting [1]) worked out at 64%.
The compound `CCOC(=O)CCc1[nH]c2cc(OCCNC[C@H](O)c3cccc(NS(C)(=O)=O)c3)ccc2c1C` [Example 82, ethyl (R)-3-[3-methyl-6-[2-[2-(3-methylsulfonylaminophenyl)-2-hydroxyethylamino]ethoxy]-1H-indol-2-yl]propionate] registered an EC50 on human β3 of 1.4 nM. In addition, the Emax on human β3 (setting [1]) is 81%.
In the same order, the values of `Cc1n[nH]c2cc(OCCNC[C@H](O)c3ccc(Cl)c(NS(C)(=O)=O)c3)ccc12` [Example 88, (R)-N-[5-[2-[2-(3-methylindazol-6-yloxy)ethylamino]-1-hydroxyethyl]-2-chlorophenyl]methanesulfonamide] are 4.7 nM and 52%.
On human β3, `Cc1c(C2CCCNC2)[nH]c2cc(OC[C@@H](O)NCCc3cccc(NS(C)(=O)=O)c3)ccc12` (stereo partly drawn) [Example 76, (R)-N-[3-[2-[1-hydroxy-2-(3-methyl-2-piperidin-3-yl-1H-indol-6-yloxy)ethylamino]ethyl]phenyl]methanesulfonamide] displayed an EC50 of 21 nM. Also, the “Intrinsic activity*” value at human β3 (setting [1]) amounted to 76%.
Take `Cc1c(C(=O)O)[nH]c2cc(OCCNC[C@H](O)c3cccc(NS(C)(=O)=O)c3)ccc12` [Example 2, (R)-6-[2-[2-(3-methylsulfonylamino)phenyl-2-hydroxyethylamino]ethoxy]-3-methyl-1H-indole-2-carboxylic acid]: in the series on ddy mice, the animals found dead entry is “none of the eight animals were found to be dead”. Further, the EC50 at human β3 turned out to be 18 nM. Besides, the Emax on human β3 (setting [1]) was found to be 124%.

These data come from patent publication US7271190B2, “Indazole compounds as β3 adrenoceptor agonist” (Asahi Kasei Pharma Corporation, priority 2001, dated 2007).
